Measurements from patent US11154569B2, “Ruthenium μ-nitrido complexes and their use as calcium uptake inhibitors” (CORNELL UNIVERSITY, priority 2018, dated 2021).

Legend:
[1] = test system: neonatal rat ventricular myocytes (NRVMs); test: Hypoxia/reoxygenation injury in neonatal rat ventricular myocytes (ΔΨm and mCa2+ uptake); format: cell-based; settings: 50 μM, 16 hours hypoxia, 8 hours reoxygenation
Procedure: Freshly isolated NRVMs were subjected to 16 hours of hypoxia (5% O2-5% CO2) followed by 8 hours of reoxygenation (20% O2-5% CO2). To study the protective effect of C-2, HIR was induced in NRVMs pretreated with or without C-2 (50 μM).
An equal number of NRVMs (6×10^6 cells) were washed in Ca^2+ free PBS, pH 7.4, resuspended and permeabilized with 40 μg/ml digitonin in 1.5 mL of intracellular medium (ICM) composed of 120 mM KCl, 10 mM NaCl, 1 mM KH2PO4, 20 mM Hepes-Tris, pH 7.2 and 2 μM thapsigargin to block the SERCA pump. All measurements were performed in the presence of 2 mM succinate. The simultaneous measurement of mitochondrial membrane potential (ΔΨm) and extra-mitochondrial Ca^2+([Ca^2+]) clearance were measured as above by using the JC-1 and Fura2-FF dyes. A series of extra-mitochondrial Ca^2+ bolus (10 μM) was added and mitochondrial uncoupler, CCCP (2 μM), were added at the indicated time points. All the experiments were performed at 37° C. with constant stirring.
Given the Ca^2+ uptake inhibiting properties and low toxicity of C-2, C-2 was studied for its possible ability to protect cardiomyocytes from the mCa^2+ overload that occurs during hypoxia/reoxygenation (I-H/R) injury and prevent mPTP opening and mitochondrial swelling. Freshly isolated neonatal rat ventricular myocytes (NRVMs) treated with C-2 (50 μM) were subjected to 16 hours of hypoxia (1% O2-5% CO2), followed by 8 hours of reoxygenation (21% O2-5% CO2). Untreated NRVMs served as controls. After H/R injury, NRVMs were permeabilized and loaded with the JC-1 and Fura-FF to simultaneously measure ΔΨm and mCa^2+ uptake.

[2] = target: T1, mitochondrial calcium uniporter (MCU) (Homo sapiens, UniProt Q8NE86); test: MCU-mediated Ca2+ uptake and ΔΨm in permeabilized HEK293T cells; format: cell-based; set-up: endogenous in cells; host or cells: HEK293T (digitonin-permeabilized); settings: for MCU mediated mCa2+ uptake / transient ΔΨm loss (JC-1): 5 μM compound, 20 μM Ca2+ bolus; for MCU mediated mCa2+ uptake: digitonin permeabilized HEK293T cells; for transient ΔΨm loss (JC-1): permeabilized HEK293T cells
T1 sequence (Q8NE86 51-351): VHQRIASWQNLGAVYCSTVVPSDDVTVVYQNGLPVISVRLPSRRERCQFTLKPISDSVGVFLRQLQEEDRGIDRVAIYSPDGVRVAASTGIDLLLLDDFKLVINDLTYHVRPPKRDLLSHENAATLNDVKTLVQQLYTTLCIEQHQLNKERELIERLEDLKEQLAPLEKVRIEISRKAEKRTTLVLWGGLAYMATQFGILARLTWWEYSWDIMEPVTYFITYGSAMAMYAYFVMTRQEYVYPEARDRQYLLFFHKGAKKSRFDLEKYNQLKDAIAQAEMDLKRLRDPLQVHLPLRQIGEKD
T1 sequence (Q9H4I9 48-107 partner limits assumed): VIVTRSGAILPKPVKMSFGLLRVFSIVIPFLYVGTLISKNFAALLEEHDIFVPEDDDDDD
Procedure: An equal number of IHEK293T (6×10^6 cells) were washed in Ca^2+ free PBS, pH 7.4, resuspended and permeabilized with 40 μg/ml digitonin in 1.5 ml of intracellular medium (ICM) composed of 120 mM KCl, 10 mM NaCl, 1 mM K—H2PO4, 20 mM HE PES-Tris, pH 7.2 and 2 μM thapsigargin to block the SERCA pump. All measurements were performed in the presence of 2 mM succinate. The permeabilized cells were loaded with JC-1 (800 nM) and Fura2-FF (0.5 μM), respectively. Fluorescence was monitored in a multi-wavelength excitation dual-wavelength emission fluorimeter. [Ca^2+]out is represented as the excitation ratio (340 nm/380 nm) of Fura2-FF/FA fluorescence and ΔΨm as the ratio of the fluorescence of J-aggregate (570 nm excitation/595 nm emission) and monomer (490 nm excitation/535 nm emission) forms of JC-1. A series of extra-mitochondrial Ca^2+ bolus (20 μM) was added and mitochondrial uncoupler, CCCP (2 jμM), were added at the indicated time points. All of the experiments were performed at 37° C. with constant stirring.
With the new nitrido-bridged ruthenium compounds C-2 and C-3 prepared, MCU-inhibitory properties of these compounds were evaluated and their activities compared to C-1, the oxo-bridged Ru360 analogue of the conventional art (S. R. Nathan et al., Inorg. Chem. 2017, 56, 3123-3126 and S. R. Nathan et al., J. Vis. Exp. 2017, 56527). The cytotoxicity of the complexes in HEK293 cells was first measured using the colorimetric thiazolyl blue tetrazolium bromide (MTT) assay, as well known in the art. […] To measure the effect of these compounds on MCU activity, permeabilized HEK293T cells were treated with commercially available Ru360, C-1, C-2, or C-3 (5 jμM) 200 seconds prior to the delivery of a 20 μM bolus of Ca^2+ in the presence of 2 mM succinate as an energy source and the sarco/endoplasmic reticulum Ca^2+-ATPase (SERCA) pump blocker thapsigargin to prevent ER Ca^2+ uptake (S. Shanmughapriya et al., Sci. Signal. 2015, 8, ra23).
FIGS. 2A-2C are graphs showing changes in mitochondrial membrane potential (ΔΨm, JC-1, top panel) and extramitochondrial Ca^2+([Ca^2+]out) clearance (Fura-2 FF, bottom panel) in digitonin permeabilized HEK293T cells in response to 20 μM of Ca^2+ after treatment with 5 μM of C-1 (FIG. 2A), C-2 (FIG. 2B), and C-3 (FIG. 2C). The transient drop in ΔΨm in control cells upon Ca^2+ addition indicates accumulation of Ca^2+ in the mitochondrial matrix. FIG. 2D is a graph quantifying the rate of [Ca^2+] uptake as a function of decrease in [Ca^2+]out after a […] Ca^2+ pulse. […] Additionally, ΔΨm was monitored using 5,5′,6,6′-tetrachloro-1,1′,3,3′-tetraethylbenzimidazolylcarbocyanine iodide (JC-1) dye (M. Reen et al., Biochemistry 1991, 30, 4480-4486).
Having identified (C-2 as a cell-permeable MCU inhibitor, a dose-response analysis was performed to determine the potency of C-2 towards mCa^2+ uptake inhibition of C-2 in a permeabilized cell system. Permeabilized IHEK293T cells were treated with C-2 (1 nM to 1 μM). A 20 μM Ca^2+ bolus was added after baseline recording, and the extra-mitochondrial calcium cleared was used as an indicator for MCU-mediated mCa^2+ uptake using Fura-2FF. The results are shown in FIGS. 4A-4C. FIG. 4A includes representative traces of [Ca^2+]out clearance in permeabilized HEK293T cells challenged with a range of C-2 concentrations (1, 2, 3, 5, and 10 nM). FIG. 4B is a graph comparing MCU-inhibitory effect by Ru360 (30 nM) and C-2 (2 and 10 nM) at lower concentrations. FIG. 4C is a graph showing calculation of dose-dependent IC50 inhibition by C-2 and Ru360. Data represent mean±SEM (n=3-6), n.s.=not significant. […] Furthermore, complete inhibition of mCa^2+ uptake was observed when cells were dosed with 10 nM C-2 while 500 nM of Ru360 was required for the same response (FIGS. 4A and 4B).

Row | Molecule | ΔΨm after H/R injury [1] | IC50 [2] | MCU mediated mCa2+ uptake [2] | transient ΔΨm loss (JC-1) [2] | mCa2+ uptake after H/R injury [1]
1 | N.N.N.N.N.N.N.N.O=C[O-].O=C[O-].[O-2].[Ru+3].[Ru+4] [Ru360, reference compound] | did not prevent H/R-mediated ΔΨm dissipation | 30 nM | significant reduction in MCU mediated mCa^2+ uptake | no transient A m loss | –
2 | [Ru2(μ-N)(en)4Cl2]Cl3 [C-3] | – | – | significant reduction in MCU mediated mCa^2+ uptake | no transient A m loss | –
3 | N.N.N.N.N.N.N.N.[Cl-].[Cl-].[N-3].[Ru+4].[Ru+4] [C-2, [Ru2(μ-N)(NH3)8Cl2]Cl3] | no loss of ΔΨm | 2.6 nM | significant reduction in MCU mediated mCa^2+ uptake | no transient A m loss | complete ablation of mCa^2+ uptake
